Assay results from the OligoGym collection.
Where “and” joins values, the source holds several entries; their conditions need not be identical. Identical values can stand only once. After the bases stand the sugars from the 5' end (letter, count) and the backbone: PS all phosphorothioate, else s phosphorothioate and o phosphodiester by linkage. Methylation of C is not given here. e = 2'-O-(2-methoxyethyl) (MOE); k = constrained ethyl (cEt); d = 2'-deoxy (DNA); m = 2'-O-methyl

Target: HSD17B13
Details: ASO, HepaRG

| Sequence | target mRNA inhibition (1 µM) | other results |
| --- | --- | --- |
| TAGCTGTGCACTCATT (sugars kkdddddddddkekek, PS) | 53% | – |
| TAGCTTTTGTCCACCT (sugars k3 d9 k3 e1, PS) | 65% | – |
| TAGGAACATTCCCTCT (sugars k3 d10 k3, PS) | 24% | – |
| TAGGCAGTAAAGTGCT (sugars k3 d10 k3, PS) | 48% | – |
| TAGGGAGGTAGCTTTT (sugars k3 d10 k3, PS) | 46% | – |
| TAGTAATCACAAGTAA (sugars k3 d10 k3, PS) | 30% | – |
| TAGTCCATGCAAAAGC (sugars k3 d10 k3, PS) | 66% | – |
| TAGTGAACATACATTG (sugars k3 d10 k3, PS) | 23% | – |
| TAGTGCCAAACCAATG (sugars k3 d1 m1 d8 k3, PS) | 55% | – |
| TAGTGGACTTCATTAG (sugars k3 d1 m1 d8 k3, PS) | 34% | – |
| TAGTGGACTTCATTAG (sugars k3 d10 k3, PS) | 52% | – |
| TAGTGTAAGCTGAGAG (sugars k3 d1 m1 d8 k3, PS) | 31% | – |
| TAGTTAGAATAGTCTT (sugars k3 d10 k3, PS) | 23% | – |
| TAGTTATCTTCTCACT (sugars k3 d10 k3, PS) | 52% | – |
| TATAACTACAAGAGGT (sugars k3 d10 k3, PS) | 46% | – |
| TATACGATGGAACAAA (sugars k3 d10 k3, PS) | 4% | – |
| TATAGGTAGCTAATGT (sugars k3 d10 k3, PS) | 31% | – |
| TATAGTAATCACAAGT (sugars k3 d10 k3, PS) | 53% | – |
| TATAGTTATCTTCTCA (sugars k3 d1 m1 d8 k3, PS) | 33% | – |
| TATAGTTATCTTCTCA (sugars k3 d10 k3, PS) | 46% | – |
| TATATACTAGGATTAG (sugars k3 d10 k3, PS) | 10% | – |
| TATATGTTGATGTTAC (sugars k3 d10 k3, PS) | 34% | – |
| TATCAACCTGCACACC (sugars k3 d10 k3, PS) | 62% | – |
| TATCTATTATGCACTC (sugars k3 d10 k3, PS) | 48% | – |

| Sequence | target mRNA inhibition (1 µM) | other results |
| --- | --- | --- |
| TATCTTAAGAGAAGGT (sugars k3 d10 k3, PS) | 29% | – |
| TATGAAGTTAGTATAG (sugars k3 d9 k3 e1, PS) | 13% | – |
| TATGAAGTTAGTATAG (sugars kkdddddddddkekek, PS) | 47% | – |
| TATGACAACTGGAGGT (sugars k3 d10 k3, PS) | 14% | – |
| TATGTAATAGCCAGTA (sugars kkdddddddddkekek, PS) | 78% | target mRNA inhibition (0.02 µM): 9%; target mRNA inhibition (0.078 µM): 33%; target mRNA inhibition (0.313 µM): 58%; target mRNA inhibition (1.25 µM): 67%; target mRNA inhibition (5 µM): 85% |
| TATTAAGTACTGTGAG (sugars k3 d10 k3, PS) | 0% | – |
| TATTAGAAGTCAGCCC (sugars k3 d9 k3 e1, PS) | 32% | – |
| TATTATGTGATTGAGT (sugars k3 d10 k3, PS) | 86% | target mRNA inhibition (0.02 µM): 60% and 50%; target mRNA inhibition (0.078 µM): 69%; target mRNA inhibition (0.313 µM): 68%; target mRNA inhibition (1.25 µM): 76% |
| TATTCTGTGGCATGGC (sugars k3 d1 m1 d8 k3, PS) | 55% | – |
| TATTCTGTGGCATGGC (sugars kkdddddddddkekek, PS) | 57% | – |
| TATTCTTATGTCATCC (sugars k3 d10 k3, PS) | 75% | – |
| TATTGGTAAGTATTCC (sugars k3 d1 m1 d8 k3, PS) | 41% | – |
| TCAAAACCTTTGTTGC (sugars k3 d10 k3, PS) | 6% | – |
| TCAAGTAATAAAGTCC (sugars k3 d10 k3, PS) | 49% | – |
| TCACAATCTAGCAACC (sugars k3 d10 k3, PS) | 4% | – |
| TCACCACGATTGTTAC (sugars k3 d10 k3, PS) | 34% | – |
| TCACCTTTCATAATGT (sugars k3 d1 m1 d8 k3, PS) | 47% | – |
| TCACCTTTCATAATGT (sugars k3 d10 k3, PS) | 63% | – |
| TCACTATATTGCATTC (sugars k3 d10 k3, PS) | 35% | – |
| TCAGAACAGTTCAACT (sugars k3 d10 k3, PS) | 30% | – |
| TCAGACTTCTTACGAC (sugars k3 d10 k3, PS) | 36% | – |
| TCAGTAGAGAGCATAA (sugars k3 d10 k3, PS) | 52% | – |
| TCAGTATCCCCTCAAA (sugars k3 d10 k3, PS) | 64% | – |
| TCAGTCCTTGTGTAGT (sugars k3 d10 k3, PS) | 72% | – |

| Sequence | target mRNA inhibition (1 µM) | other results |
| --- | --- | --- |
| TCATAAAGGTGGGATA (sugars k3 d10 k3, PS) | 40% | – |
| TCATACCACATACCCA (sugars k3 d10 k3, PS) | 41% | – |
| TCATAGCTCACTTAGT (sugars k3 d10 k3, PS) | 0% | – |
| TCATAGTTCAAATTGG (sugars k3 d10 k3, PS) | 47% | – |
| TCATAGTTTATATGGA (sugars k3 d10 k3, PS) | 44% | – |
| TCATCGATGGAAGAAG (sugars k3 d10 k3, PS) | 24% | – |
| TCATTTAGAATACGCT (sugars k3 d10 k3, PS) | 20% | – |
| TCATTTAGCAGCTTGG (sugars k3 d10 k3, PS) | 79% | target mRNA inhibition (0.02 µM): 12%; target mRNA inhibition (0.078 µM): 31%; target mRNA inhibition (0.313 µM): 43%; target mRNA inhibition (1.25 µM): 87%; target mRNA inhibition (5 µM): 84% |
| TCATTTTTAATACGAC (sugars k3 d10 k3, PS) | 48% | – |
| TCCAAATCAGGTAGTT (sugars k3 d10 k3, PS) | 22% | – |
| TCCAAGTAGGAGTAGA (sugars k3 d10 k3, PS) | 24% | – |
| TCCAATACAGGCCATA (sugars k3 d10 k3, PS) | 62% | – |
| TCCAGAATAGAGTTGC (sugars k3 d10 k3, PS) | 46% | – |
| TCCATAATAATAGCTC (sugars k3 d10 k3, PS) | 69% | – |
| TCCCAACCAAACTTCC (sugars k3 d10 k3, PS) | 82% | target mRNA inhibition (0.02 µM): 0%; target mRNA inhibition (0.078 µM): 0%; target mRNA inhibition (0.313 µM): 7%; target mRNA inhibition (1.25 µM): 25%; target mRNA inhibition (5 µM): 63% and 50% |
| TCCCACAAAACTAACC (sugars k3 d10 k3, PS) | 24% | – |
| TCCCACAGAACCAATA (sugars k3 d10 k3, PS) | 24% | – |
| TCCGAAAAAAGTGGAG (sugars k3 d10 k3, PS) | 12% | – |
| TCCTACAGTGCTTAGT (sugars k3 d10 k3, PS) | 44% | – |
| TCCTCCACACCGCGCT (sugars k3 d10 k3, PS) | 20% | – |
| TCCTGTGTTAGCTTTA (sugars k3 d1 m1 d8 k3, PS) | 72% | – |
| TCCTGTGTTAGCTTTA (sugars k3 d10 k3, PS) | 56% | – |
| TCCTTTGTATTTCGCT (sugars k3 d10 k3, PS) | 68% | – |
| TCGGTCACCTTTCATA (sugars k3 d9 k3 e1, PS) | 72% | – |

| Sequence | target mRNA inhibition (1 µM) | other results |
| --- | --- | --- |
| TCGGTCACCTTTCATA (sugars k3 d10 k3, PS) | 64% | – |
| TCGGTCACCTTTCATA (sugars kkdddddddddkekek, PS) | 63% | – |
| TCGGUCACCTTTCATA (sugars k3 d1 m1 d8 k3, PS) | 21% | – |
| TCTAAACATCTCTGGG (sugars k3 d9 k3 e1, PS) | 42% | – |
| TCTAAAGTGCTGGTTG (sugars k3 d10 k3, PS) | 34% | – |
| TCTAAATACCCTTGGT (sugars k3 d10 k3, PS) | 26% | – |
| TCTAAGTTAGCCCCCA (sugars kkdddddddddkekek, PS) | 19% | – |
| TCTACACTAATATTGA (sugars k3 d10 k3, PS) | 21% | – |
| TCTAGGATGATGTTCA (sugars k3 d10 k3, PS) | 64% | – |
| TCTATAGCTAAGTATA (sugars k3 d10 k3, PS) | 0% | – |
| TCTATCAGACTTCTTA (sugars k3 d10 k3, PS) | 49% | – |
| TCTCAAGGAGTACTTC (sugars k3 d10 k3, PS) | 80% | target mRNA inhibition (0.02 µM): 26%; target mRNA inhibition (0.078 µM): 32%; target mRNA inhibition (0.313 µM): 58%; target mRNA inhibition (1.25 µM): 82%; target mRNA inhibition (5 µM): 91% |
| TCTCTGGGACCAAGGA (sugars k3 d10 k3, PS) | 56% | – |
| TCTCTTGACAATGGTT (sugars k3 d10 k3, PS) | 70% | target mRNA inhibition (0.02 µM): 2%; target mRNA inhibition (0.078 µM): 14%; target mRNA inhibition (0.313 µM): 44%; target mRNA inhibition (1.25 µM): 86%; target mRNA inhibition (5 µM): 86% |
| TCTGGGACCAAGGATA (sugars k3 d10 k3, PS) | 30% | – |
| TCTTAAACCTTCCCTG (sugars k3 d10 k3, PS) | 21% | – |
| TCTTAAGAGAAGGTGC (sugars k3 d10 k3, PS) | 39% | – |
| TCTTAGCTGTGCACTC (sugars k3 d9 k3 e1, PS) | 52% | – |
| TCTTATGTAATAGCCA (sugars k3 d10 k3, PS) | 77% | target mRNA inhibition (0.02 µM): 0%; target mRNA inhibition (0.078 µM): 2%; target mRNA inhibition (0.313 µM): 35%; target mRNA inhibition (1.25 µM): 74%; target mRNA inhibition (5 µM): 91% |
| TCTTCTCTTGGGTCCA (sugars k3 d10 k3, PS) | 59% | – |
| TCTTGACAATGGTTGA (sugars k3 d10 k3, PS) | 75% | – |
| TCTTGACAATGGTTGC (sugars k3 d1 m1 d8 k3, PS) | 67% | target mRNA inhibition (0.02 µM): 25%; target mRNA inhibition (0.078 µM): 16%; target mRNA inhibition (0.313 µM): 39%; target mRNA inhibition (1.25 µM): 60%; target mRNA inhibition (5 µM): 87% |
| TCTTGACAATGGTTGC (sugars k3 d9 k3 e1, PS) | 77% | target mRNA inhibition (0.02 µM): 0%; target mRNA inhibition (0.078 µM): 0%; target mRNA inhibition (0.313 µM): 11%; target mRNA inhibition (1.25 µM): 46%; target mRNA inhibition (5 µM): 79% |
